Test results reported in patent US4731471A, “(5,6-dichloro-3-oxo-2,3,9,9a-tetrahydrofluoren-7-yl)-alkanoic acids and alkanimidamides bearing novel functional 9a-substituents” (Merck & Co., Inc., priority 1986, dated 1988).

Key:
[1] = system: cerebrocartical tissue slices from cats; test: in vitro cat cerebrocortical tissue slice assay (HCO3^- -stimulated swelling); conditions: Felis catus, racemate
From the text: This assay is described in detail in articles by: Cragoe, E. J., Jr.; Gould, N. P.; Woltersdorf, O. W., Jr.; Ziegler, C.: Bourke, R. S.; Nelson, L. R.; Kimelberg, H. K.; Waldman, J. B.; Popp, A. J.; Sedransk, N. J. Med. Chem. 1982, 25, 567, and by Rourke, R. S.: Kimelberg, H. K.; Daze, M.; Church, G. Neurochem. Res. 1983, 8, 5.
Cat pial surface slices (~0.5 mm thick) were cut from the cerebral convexities using a Stadie-Riggs microtome without any moistening. Each slice was then weighed on a torsion balance and immediately placed in a Warburg flask containing 2 mL incubation medium at room temperature (22° C.).
The basic composition of the incubation medium in mmol/l was: KCl, 27; NaCl, 100; glucose, 10; KH2 PO4, 1.2: MgSO4, 1.2; CaCl2, 1.3; HEPES (N-2-hydroxyethylpiperazine-N'-2-ethanesulfonic acid (Sigma)). This solution was titrated with NaOH to pH 7.8, and saturated with oxygen by bubbling the gas through the solution.
To obtain HCO3^- dependent swelling, a solution of NaHCO3 in the above medium was added from the side-arm of the flask to slices which had been incubated in 2 mL of medium without added HCO3 at 37° C. for 20 minutes to achieve a final concentration of 5 mmol. The slices were then incubated for an additional 40 minutes. For control experiments,0.5 mL of the medium without HCO3^- was similarly added from the side-arm. Inhibitors, when used, were present with the slices throughout the 60 minute incubation period. After 60 minutes, the tissue slices were separated from the medium by careful vacuum filtration, re-weighed, and then homogenized (10% w/v suspension) in 1N perchloric acid and then centrifuged. The supernatant was then assayed for electrolytes as previously described.
The tissue content of electrolytes is always expressed as micromoles per gram of the initial wet weight. Percent swelling was calculated as (final wet weight minus initial wet weight/initial wet weight)×100 and HCO3^- dependent swelling would be the increased swelling of slices due to added HCO3^- in media containing 28-29 mmol K^+. Such HCO3^- stimulated swelling is not seen in medium with a normal K^+ concentration (4 to 5 mmol).
The (1) in vitro cat cerebrocortical tissue slice assay, (2) the in vitro primary rat astrocyte culture assay and (3) the in vivo cat head injury assay. The first assay, the in vitro cat cerebrocortical tissue slice assay has been described by Marshall, L. F.; Shapiro, H. M.; Smith, R. W. In "Seminars in Neurological Surgery: Neural Trauma"; Popp, A. J.; Bourke, R. S.; Nelson, L. R.; Kimelberg, H, K,. Eds.; Raven Press: New York, 1979; p. 347, by Bourke, R. S.; Kimelberg, H, K.; Daze, M. A. in Brain Res. 1978, 154, 196, and by Bourke, R. S.; Kimelberg, H. K,; Nelson, L. R. in Brain Res. 1976, 105, 309. This method constitutes a rapid and accurate method of determining the intrinsic chloride inhibitory properties of the compounds of the invention in the target tissue.
Using in vitro cat cerebrocortical tissue slice assay, described in Example 1, compounds of the present invention can be tested for activity. This test provides the principal in vitro evaluation and consists of a determination of concentration vs. response curve. The addition of HCO3^- to isotonic, K^+ -rich saline-glucose incubation media is known to specifically stimulate the transport of Cl^- coupled with Na^+ and an osmotic equivalent of water in incubating slices of mammalian cerebral cortex. […] After addition of drug to the incubation media, detailed drug concentration-response curves are then obtained. The data are expressed as percent HCO3^- -stimulated swelling vs. drug concentration, from which the concentration of drug providing 50% inhibition of HCO3^- -stimulated swelling (I50 in molarity) is interpolated.
Adult cats of 2-3 kg body weight are employed in tissue slice studies. Prior to sacrifice, the animals are anesthetized with ketamine hydrochloride (Ketaset), 10 mg/kg intramuscularly. […]

experimental head injury = conditions: cited from earlier work
[2] = system: clinical cases of head injury; conditions: cited from earlier work
astroglial edema = conditions: cited from earlier work

SMILES	inhibition at 0.1 µM ([1]; Conc. 10^-7 M) [%]	inhibition at 0.01 µM ([1]; Conc. 10^-8 M) [%]	inhibition at 0.001 µM ([1]; Conc. 10^-9 M) [%]	inhibition at 0.0001 µM ([1]; Conc. 10^-10 M) [%]	inhibition at 10 pM ([1]; Conc. 10^-11 M) [%]	inhibition at 1 pM ([1]; Conc. 10^-12 M) [%]	activity in in vivo assay (experimental head injury)	reducing mortality in clinical cases of head injury [2]	activity in in vitro assay (astroglial edema)
O=C(O)COc1cc2c(c(Cl)c1Cl)C1=CC(=O)CCC1(CCO)C2 (racemic) [Example 2, {[5,6-Dichloro-9a-(2-hydroxyethyl)-3-oxo-2,3,9,9a-tetrahydro-1H-fluoren-7-yl]oxy}acetic acid]	19	92	75	85	53	15	–	–	–
C=C(CC)C(=O)c1ccc(OCC(=O)O)c(Cl)c1Cl [ethacrynic acid]	–	–	–	–	–	–	exhibited activity	effective in reducing mortality in clinical cases of head injury	exhibited activity
